#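 1) Cells in 96-well plates. 2) Compound, 48 h, 5 concentrations. 3) Linear interpolation between surrounding doses. 4) Unreached endpoint = highest concentration. TGI is the concentration that stops growth completely.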
# Assays:
# Test in all cases: NCI tumour cell line growth inhibition, 48 h
# A498 renal = system: A498 renal
# A549 NSCLC = system: A549 NSCLC
# ACHN renal = system: ACHN renal
# BT-549 breast = system: BT-549 breast
# CAKI-1 renal = system: CAKI-1 renal
# CCRF-CEM leukemia = system: CCRF-CEM leukemia
# COLO 205 colon = system: COLO 205 colon
# DU-145 prostate = system: DU-145 prostate
# EKVX NSCLC = system: EKVX NSCLC
# HCC-2998 colon = system: HCC-2998 colon
# HCT-116 colon = system: HCT-116 colon
# HCT-15 colon = system: HCT-15 colon
# HOP-62 NSCLC = system: HOP-62 NSCLC
# HS 578T breast = system: HS 578T breast
# KM12 colon = system: KM12 colon
# M14 melanoma = system: M14 melanoma
# MALME-3M melanoma = system: MALME-3M melanoma
# MCF7 breast = system: MCF7 breast
# MDA-MB-231 breast = system: MDA-MB-231 breast
# MDA-MB-435 = system: MDA-MB-435
# MDA-N = system: MDA-N
# MOLT-4 leukemia = system: MOLT-4 leukemia
# NCI-H226 lung = system: NCI-H226 lung
# NCI-H23 lung = system: NCI-H23 lung
# NCI/ADR-RES ovarian = system: NCI/ADR-RES ovarian
# OVCAR-3 ovarian = system: OVCAR-3 ovarian
# OVCAR-4 ovarian = system: OVCAR-4 ovarian
# OVCAR-5 ovarian = system: OVCAR-5 ovarian
# OVCAR-8 ovarian = system: OVCAR-8 ovarian
# PC-3 prostate = system: PC-3 prostate
# RPMI-8226 leukemia = system: RPMI-8226 leukemia
# RXF 393 renal = system: RXF 393 renal
# SF-268 CNS = system: SF-268 CNS
# SF-295 CNS = system: SF-295 CNS
# SF-539 CNS = system: SF-539 CNS
# SK-MEL-2 melanoma = system: SK-MEL-2 melanoma
# SK-MEL-28 melanoma = system: SK-MEL-28 melanoma
# SK-MEL-5 melanoma = system: SK-MEL-5 melanoma
# SK-OV-3 ovarian = system: SK-OV-3 ovarian
# SN12C renal = system: SN12C renal
# SNB-19 CNS = system: SNB-19 CNS
# SNB-75 CNS = system: SNB-75 CNS
# SW-620 colon = system: SW-620 colon
# T-47D breast = system: T-47D breast
# TK-10 renal = system: TK-10 renal
# U251 CNS = system: U251 CNS
# UACC-257 melanoma = system: UACC-257 melanoma
# UACC-62 melanoma = system: UACC-62 melanoma
# UO-31 renal = system: UO-31 renal
# 786-0 renal = system: 786-0 renal
# HL-60(TB) leukemia = system: HL-60(TB) leukemia
# HOP-92 NSCLC = system: HOP-92 NSCLC
# HT29 colon = system: HT29 colon
# IGROV1 ovarian = system: IGROV1 ovarian
# K-562 leukemia = system: K-562 leukemia
# LOX IMVI melanoma = system: LOX IMVI melanoma
# NCI-H460 lung = system: NCI-H460 lung
# NCI-H522 lung = system: NCI-H522 lung
# SR leukemia = system: SR leukemia
smiles,measurement,setting,value
Cc1cn(C2CC(O)C(Cn3cc(Cn4nc(Br)c(=O)[nH]c4=O)nn3)O2)c(=O)[nH]c1=O (stereo not drawn),TGI,A498 renal,> 100 µM
same,TGI,A549 NSCLC,> 100 µM
same,TGI,ACHN renal,> 100 µM
same,TGI,BT-549 breast,> 100 µM
same,TGI,CAKI-1 renal,> 100 µM
same,TGI,CCRF-CEM leukemia,14.3 µM
same,TGI,COLO 205 colon,> 100 µM
same,TGI,DU-145 prostate,> 100 µM
same,TGI,EKVX NSCLC,> 100 µM
same,TGI,HCC-2998 colon,> 100 µM
same,TGI,HCT-116 colon,> 100 µM
same,TGI,HCT-15 colon,> 100 µM
same,TGI,HOP-62 NSCLC,> 100 µM
same,TGI,HS 578T breast,> 100 µM
same,TGI,KM12 colon,> 100 µM
same,TGI,M14 melanoma,> 100 µM
same,TGI,MALME-3M melanoma,> 100 µM
same,TGI,MCF7 breast,> 100 µM
same,TGI,MDA-MB-231 breast,> 100 µM
same,TGI,MDA-MB-435,> 100 µM
same,TGI,MDA-N,> 100 µM
same,TGI,MOLT-4 leukemia,> 100 µM
same,TGI,NCI-H226 lung,> 100 µM
same,TGI,NCI-H23 lung,> 100 µM
same,TGI,NCI/ADR-RES ovarian,> 100 µM
same,TGI,OVCAR-3 ovarian,> 100 µM
same,TGI,OVCAR-4 ovarian,> 100 µM
same,TGI,OVCAR-5 ovarian,> 100 µM
same,TGI,OVCAR-8 ovarian,> 100 µM
same,TGI,PC-3 prostate,> 100 µM
same,TGI,RPMI-8226 leukemia,> 100 µM
same,TGI,RXF 393 renal,> 100 µM
same,TGI,SF-268 CNS,> 100 µM
same,TGI,SF-295 CNS,> 100 µM
same,TGI,SF-539 CNS,> 100 µM
same,TGI,SK-MEL-2 melanoma,> 100 µM
same,TGI,SK-MEL-28 melanoma,> 100 µM
same,TGI,SK-MEL-5 melanoma,> 100 µM
same,TGI,SK-OV-3 ovarian,> 100 µM
same,TGI,SN12C renal,> 100 µM
same,TGI,SNB-19 CNS,> 100 µM
same,TGI,SNB-75 CNS,> 100 µM
same,TGI,SW-620 colon,> 100 µM
same,TGI,T-47D breast,> 100 µM
same,TGI,TK-10 renal,> 100 µM
same,TGI,U251 CNS,> 100 µM
same,TGI,UACC-257 melanoma,> 100 µM
same,TGI,UACC-62 melanoma,> 100 µM
same,TGI,UO-31 renal,> 100 µM
COc1cc(/C=C2\N=C(c3ccccc3)N(c3ccc(C(=O)c4ccccc4)cc3N3C(=O)/C(=C/c4cc(OC)c(OC)c(OC)c4)N=C3c3ccccc3)C2=O)cc(OC)c1OC,TGI,786-0 renal,> 100 µM
same,TGI,A498 renal,43 µM
same,TGI,A549 NSCLC,71.6 µM
same,TGI,ACHN renal,66 µM
same,TGI,BT-549 breast,66.4 µM
same,TGI,CAKI-1 renal,> 100 µM
same,TGI,CCRF-CEM leukemia,39.8 µM
same,TGI,COLO 205 colon,30 µM
same,TGI,DU-145 prostate,40.3 µM
same,TGI,EKVX NSCLC,76.7 µM
same,TGI,HCC-2998 colon,11.2 µM
same,TGI,HCT-116 colon,52.2 µM
same,TGI,HCT-15 colon,39.2 µM
same,TGI,HL-60(TB) leukemia,15.5 µM
same,TGI,HOP-62 NSCLC,> 100 µM
same,TGI,HOP-92 NSCLC,> 100 µM
same,TGI,HS 578T breast,74.8 µM
same,TGI,HT29 colon,92 µM
same,TGI,IGROV1 ovarian,> 100 µM
same,TGI,K-562 leukemia,68.7 µM
same,TGI,KM12 colon,48.9 µM
same,TGI,LOX IMVI melanoma,39.2 µM
same,TGI,M14 melanoma,33.4 µM
same,TGI,MALME-3M melanoma,41.3 µM
same,TGI,MCF7 breast,42.1 µM
same,TGI,MDA-MB-231 breast,54 µM
same,TGI,MDA-MB-435,18.5 µM
same,TGI,MDA-N,14.9 µM
same,TGI,MOLT-4 leukemia,39.6 µM
same,TGI,NCI-H23 lung,41.6 µM
same,TGI,NCI-H460 lung,23.8 µM
same,TGI,NCI-H522 lung,26.1 µM
same,TGI,NCI/ADR-RES ovarian,34.1 µM
same,TGI,OVCAR-3 ovarian,16.6 µM
same,TGI,OVCAR-4 ovarian,> 100 µM
same,TGI,OVCAR-5 ovarian,> 100 µM
same,TGI,OVCAR-8 ovarian,73.2 µM
same,TGI,PC-3 prostate,46 µM
same,TGI,RPMI-8226 leukemia,> 100 µM
same,TGI,RXF 393 renal,34.9 µM
same,TGI,SF-268 CNS,> 100 µM
same,TGI,SF-295 CNS,55.9 µM
same,TGI,SK-MEL-2 melanoma,25.1 µM
same,TGI,SK-MEL-28 melanoma,65.8 µM
same,TGI,SK-MEL-5 melanoma,21.2 µM
same,TGI,SK-OV-3 ovarian,55.4 µM
same,TGI,SN12C renal,89.1 µM
same,TGI,SNB-19 CNS,> 100 µM
same,TGI,SNB-75 CNS,35.6 µM
same,TGI,SW-620 colon,40.7 µM
same,TGI,T-47D breast,26.4 µM
same,TGI,TK-10 renal,42.3 µM
same,TGI,U251 CNS,> 100 µM
same,TGI,UACC-257 melanoma,33.4 µM
same,TGI,UACC-62 melanoma,24.7 µM
same,TGI,UO-31 renal,40.3 µM
NC(=S)N1N=C(c2ccc3c(c2)CCC3)CC1c1ccccc1 (stereo not drawn),TGI,786-0 renal,> 100 µM
same,TGI,A498 renal,29.2 µM
same,TGI,A549 NSCLC,> 100 µM
same,TGI,ACHN renal,> 100 µM
same,TGI,BT-549 breast,98.3 µM
same,TGI,CAKI-1 renal,> 100 µM
same,TGI,CCRF-CEM leukemia,> 100 µM
same,TGI,COLO 205 colon,50.8 µM
same,TGI,DU-145 prostate,80.8 µM
same,TGI,EKVX NSCLC,> 100 µM
same,TGI,HCC-2998 colon,36.8 µM
same,TGI,HCT-116 colon,87.6 µM
same,TGI,HCT-15 colon,69.6 µM
same,TGI,HL-60(TB) leukemia,44.5 µM
same,TGI,HOP-62 NSCLC,87 µM
same,TGI,HOP-92 NSCLC,85.7 µM
same,TGI,HS 578T breast,> 100 µM
same,TGI,HT29 colon,> 100 µM
same,TGI,IGROV1 ovarian,> 100 µM
same,TGI,K-562 leukemia,> 100 µM
same,TGI,KM12 colon,> 100 µM
same,TGI,LOX IMVI melanoma,> 100 µM
same,TGI,M14 melanoma,> 100 µM
same,TGI,MALME-3M melanoma,74.4 µM
same,TGI,MCF7 breast,45.2 µM
same,TGI,MDA-MB-435,96.9 µM
same,TGI,MDA-N,> 100 µM
same,TGI,MOLT-4 leukemia,> 100 µM
same,TGI,NCI-H226 lung,> 100 µM
same,TGI,NCI-H23 lung,95.5 µM
same,TGI,NCI-H460 lung,64.9 µM
same,TGI,NCI-H522 lung,24.7 µM
same,TGI,NCI/ADR-RES ovarian,58.6 µM
same,TGI,OVCAR-3 ovarian,55.8 µM
same,TGI,OVCAR-4 ovarian,85.2 µM
same,TGI,OVCAR-5 ovarian,> 100 µM
same,TGI,OVCAR-8 ovarian,> 100 µM
same,TGI,PC-3 prostate,87.8 µM
same,TGI,RPMI-8226 leukemia,51.7 µM
same,TGI,RXF 393 renal,28 µM
same,TGI,SF-268 CNS,> 100 µM
same,TGI,SF-295 CNS,68.3 µM
same,TGI,SF-539 CNS,43 µM
same,TGI,SK-MEL-2 melanoma,36.2 µM
same,TGI,SK-MEL-28 melanoma,> 100 µM
same,TGI,SK-MEL-5 melanoma,31.3 µM
same,TGI,SK-OV-3 ovarian,88.6 µM
same,TGI,SN12C renal,> 100 µM
same,TGI,SNB-19 CNS,> 100 µM
same,TGI,SNB-75 CNS,56.1 µM
same,TGI,SR leukemia,95.5 µM
same,TGI,SW-620 colon,> 100 µM
same,TGI,T-47D breast,27.9 µM
same,TGI,TK-10 renal,87.1 µM
same,TGI,U251 CNS,63.5 µM
same,TGI,UACC-257 melanoma,86.9 µM
same,TGI,UACC-62 melanoma,74.1 µM
same,TGI,UO-31 renal,> 100 µM
